Test results: US10870647B2, “Imidazopyridine derivative, method for preparing same, and pharmaceutical composition containing same as active ingredient for preventing or treating cancer” (DAEGU-GYEONGBUK MEDICAL INNOVATION FOUNDATION, priority 2016, dated 2020)

Molecular target: T1, YES (Homo sapiens, UniProt P07947)
T1 construct: purchased Reaction Biology Co
Test: Enzyme inhibitory activity (Kd), Reaction Biology Co.
Type: binding

T1 sequence (P07947 whole entry): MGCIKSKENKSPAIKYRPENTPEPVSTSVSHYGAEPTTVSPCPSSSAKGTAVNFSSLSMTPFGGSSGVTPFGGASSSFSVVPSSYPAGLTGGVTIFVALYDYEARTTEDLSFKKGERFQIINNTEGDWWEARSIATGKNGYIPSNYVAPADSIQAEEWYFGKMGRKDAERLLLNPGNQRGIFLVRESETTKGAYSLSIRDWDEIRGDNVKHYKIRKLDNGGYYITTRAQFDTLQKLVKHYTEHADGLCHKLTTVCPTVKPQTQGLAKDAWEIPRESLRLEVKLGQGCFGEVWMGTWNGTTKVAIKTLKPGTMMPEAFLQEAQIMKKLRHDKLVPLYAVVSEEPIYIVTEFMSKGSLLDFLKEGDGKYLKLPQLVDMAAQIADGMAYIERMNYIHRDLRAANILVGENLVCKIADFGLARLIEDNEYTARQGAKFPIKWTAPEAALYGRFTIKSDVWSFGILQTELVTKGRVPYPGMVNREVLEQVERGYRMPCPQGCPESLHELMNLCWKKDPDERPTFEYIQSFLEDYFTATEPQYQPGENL

For CCN1CCN(Cc2ccc(NC(=O)c3ccc(C)c(C#Cc4cnc5c(Nc6cnn(C)c6)cccn45)c3)cc2C(F)(F)F)CC1 [Example 8, N-(4-((4-ethylpiperazin-1-yl)methyl)-3-(trifluoromethyl)phenyl)-4-methyl-3-((8-((1-methyl-1H-pyrazol-4-yl)amino)imidazo[1,2-a]pyridin-3-yl)ethynyl)benzamide], the Kd was 17 nM.
